{
  "source": "patent US8318504B2",
  "about": "“MRP2 efflux pathway prognostic method” (priority 2009, dated 2012)",
  "key": {"NTCP": {"target": "T1, NTCP (Homo sapiens, UniProt Q14973)", "T1 construct": "the coding region ligated into pcDNA5/FRT; expressed in transfected cells", "T1 sequence (Q14973 1-349)": "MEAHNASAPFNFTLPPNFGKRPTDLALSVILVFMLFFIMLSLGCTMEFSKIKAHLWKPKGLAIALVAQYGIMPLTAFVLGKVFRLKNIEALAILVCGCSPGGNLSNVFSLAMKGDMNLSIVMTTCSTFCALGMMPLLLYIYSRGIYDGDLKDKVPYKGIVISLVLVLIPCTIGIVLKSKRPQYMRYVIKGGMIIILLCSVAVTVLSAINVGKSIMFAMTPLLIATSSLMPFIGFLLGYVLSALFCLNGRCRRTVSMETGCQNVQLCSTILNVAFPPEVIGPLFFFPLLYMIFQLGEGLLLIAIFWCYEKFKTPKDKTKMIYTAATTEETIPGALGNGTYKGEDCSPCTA", "test": "Uptake of TC and CLF into CHO cells stably expressing NTCP", "type": "cell-based", "details": "45 seconds, sodium-dependent uptake rates", "description": "cDNA for human NTCP [Hagenbuch et al., J Clin Invest 1994 March; 93(3): 1326-1331] was cut with EcoRV and HindI and the coding region ligated into pcDNA5/FRT (Invitrogen, Life-Technologies, Carlsbad, Calif.). CHO FlpIn cells (Invitrogen, Life-Technologies) were transfected with the resulting construct using Lipofectamine® 2000 (Invitrogen, Life-Technologies). Stably transfected cells were selected with 550 μg Hygromycin-B in HAM-F12 medium (Gibco, Invitrogen, Life-Technologies). Transfected cells were cloned with the limiting dilution method. […] To further characterize the cloned cells, immunofluorescence localization of NTCP using a polyclonal antibody against NTCP [Kullak-Ublick G et al., Gastroenterology 1997 October; 113(4):1295-1305] was performed as described by Huber R D et al. [Am J Physiol Cell Physiol 2007 February; 292(2):[…]-[…]]. CHO cells expressing OATP1B1, OATP1B3 and OATP2B1 were described previously [Treiber et al., DMD 35:1400-1407, 2007]. For all transport experiments, cells grown on 3 cm culture dishes were cultured for 24 hours in media supplemented with 5 mmol/L sodium-butyrate to increase expression levels of transfected transporters [Palermo D P et al., J Biotechnol 1991 June; 19(1):35-47]. • Transport experiments with uptake of radioactively labeled substrates: These experiments were performed as described by Huber R D et al. […] Uptake was performed in the same buffers as for the radioactive substrates above. For visualization of CLF uptake, cells were immediately inspected with a Leica-DM-IRBE-inverted-microcope (Leica-Microsystems, Wetzlar, Germany) equipped with a Hamamatsu-ORKA-ER-camera (Hamamatsu-Photonoics, Japan). To determine uptake of CLF, cells were solubilized by the addition of 2 ml 1% (w/v) Triton-X-100. After complete solubilization, 1.5 ml was used to measure fluorescence in a Perkin-Elmer LS-5 luminescence-spectrometer set at λexe 486 nm (slit 10 nm) and λem 520 nm (slit 5 nm). Protein was determined with the bicinchoninic acid method using a kit from Interchim (Montfuçon, France). […]"}, "[1]": {"substrate": "CC(CCC(=O)NC(CCCCNC(=S)Nc1ccc(-c2c3ccc(=O)cc-3oc3cc(O)ccc23)c(C(=O)O)c1)C(=O)O)C1CCC2C3C(O)CC4CC(O)CCC4(C)C3CC(O)C12C", "test": "ATP-dependent transport of CLF into Sf21 membrane vesicles containing ABCC3", "type": "biochemical, human", "details": "other: 30 μg total protein, presence or absence of 4 mmol/L ATP; 27.0 °C", "description": "(§1) The production of recombinant baculovirus was as described by de Waart et al. [Liver Int 2006 April; 26(3):362-368]. ABCC3 and ABCG2-recombinant baculovirus were a kind gift from Borst [Breedveld P. et al., Cancer Res 2004 Aug. 15; 64(16):5804-5811 and Borst P. et al., J Biol Chem 2001 Dec. 7; 276(49):46400-46407.]. ABCB11-recombinant baculovirus was a kind gift from Thompson [Thompson R J et al., Gastroenterology 2002 November; 123(5):1649-1658]. Sf21 cells grown at 27° C. were infected with ABCB11, ABCC2, ABCC3 and ABCG2-cDNA containing baculovirus. Cells were harvested at 2-4 days after infection. Membrane vesicle preparation was as described by de Waart et al. [Liver Int 2006 April; 26(3):362-368].\n(§2) Transport studies with membrane vesicles were performed using the rapid filtration technique as described by Heijn M et al. [Am J Physiol 1992 January; 262(1 Pt 1):C104-C110]. Radiolabel was measured with a scintillation counter. When CLF was used as a probe, filters were placed in a glass tube, 0.1% Triton-X-100 was added and the tubes vortexed. Samples were pipetted in 96-well plates (Kartell, Noviglio, Italy) and the amount CLF quantitated by measurement of fluorescence at λexe 485 nm and λcm 520 nm using a NovoStar (BMG-labtech, Offenburg, Germany). […]"}, "[2]": {"substrate": "CC(CCC(=O)NC(CCCCNC(=S)Nc1ccc(-c2c3ccc(=O)cc-3oc3cc(O)ccc23)c(C(=O)O)c1)C(=O)O)C1CCC2C3C(O)CC4CC(O)CCC4(C)C3CC(O)C12C", "test": "ATP-dependent transport of CLF into Sf21 membrane vesicles containing ABCC2", "type": "biochemical, human", "details": "other: 10 μg total protein, presence or absence of 4 mmol/L ATP; 27.0 °C", "description": "as §1, §2"}},
  "data": [
    {"molecule": "C[C@H](CCC(=O)NCCS(=O)(=O)O)[C@H]1CC[C@H]2[C@@H]3[C@H](O)C[C@@H]4C[C@H](O)CC[C@]4(C)[C@H]3C[C@H](O)[C@]12C", "note": "[TC, taurocholate]", "values": [
      {"measurement": "Vmax for sodium-dependent transport of TC", "setting": "NTCP", "value": 6738, "unit": "pmol TC/mg protein/min"},
      {"measurement": "Km", "setting": "NTCP; read-out: Km for sodium-dependent transport of TC", "value": 16, "unit": "µM"}
    ]},
    {"molecule": "ABCC3 (Homo sapiens) (protein, made in house; host or cells: Sf21 insect cells, baculovirus (gift from Borst); plasma membrane vesicles) MDALCGSGELGSKFWDSNLSVHTENPDLTPCFQNSLLAWVPCIYLWVALPCYLLYLRHHCRGYIILSHLSKLKMVLGVLLWCVSWADLFYSFHGLVHGRAPAPVFFVTPLVVGVTMLLATLLIQYERLQGVQSSGVLIIFWFLCVVCAIVPFRSKILLAKAEGEISDPFRFTTFYIHFALVLSALILACFREKPPFFSAKNVDPNPYPETSAGFLSRLFFWWFTKMAIYGYRHPLEEKDLWSLKEEDRSQMVVQQLLEAWRKQEKQTARHKASAAPGKNASGEDEVLLGARPRPRKPSFLKALLATFGSSFLISACFKLIQDLLSFINPQLLSILIRFISNPMAPSWWGFLVAGLMFLCSMMQSLILQHYYHYIFVTGVKFRTGIMGVIYRKALVITNSVKRASTVGEIVNLMSVDAQRFMDLAPFLNLLWSAPLQIILAIYFLWQNLGPSVLAGVAFMVLLIPLNGAVAVKMRAFQVKQMKLKDSRIKLMSEILNGIKVLKLYAWEPSFLKQVEGIRQGELQLLRTAAYLHTTTTFTWMCSPFLVTLITLWVYVYVDPNNVLDAEKAFVSVSLFNILRLPLNMLPQLISNLTQASVSLKRIQQFLSQEELDPQSVERKTISPGYAITIHSGTFTWAQDLPPTLHSLDIQVPKGALVAVVGPVGCGKSSLVSALLGEMEKLEGKVHMKGSVAYVPQQAWIQNCTLQENVLFGKALNPKRYQQTLEACALLADLEMLPGGDQTEIGEKGINLSGGQRQRVSLARAVYSDADIFLLDDPLSAVDSHVAKHIFDHVIGPEGVLAGKTRVLVTHGISFLPQTDFIIVLADGQVSEMGPYPALLQRNGSFANFLCNYAPDEDQGHLEDSWTALEGAEDKEALLIEDTLSNHTDLTDNDPVTYVVQKQFMRQLSALSSDGEGQGRPVPRRHLGPSEKVQVTEAKADGALTQEEKAAIGTVELSVFWDYAKAVGLCTTLAICLLYVGQSAAAIGANVWLSAWTNDAMADSRQNNTSLRLGVYAALGILQGFLVMLAAMAMAAGGIQAARVLHQALLHNKIRSPQSFFDTTPSGRILNCFSKDIYVVDEVLAPVILMLLNSFFNAISTLVVIMASTPLFTVVILPLAVLYTLVQRFYAATSRQLKRLESVSRSPIYSHFSETVTGASVIRAYNRSRDFEIISDTKVDANQRSCYPYIISNRWLSIGVEFVGNCVVLFAALFAVIGRSSLNPGLVGLSVSYSLQVTFALNWMIRMMSDLESNIVAVERVKEYSKTETEAPWVVEGSRPPEGWPPRGEVEFRNYSVRYRPGLDLVLRDLSLHVHGGEKVGIVGRTGAGKSSMTLCLFRILEAAKGEIRIDGLNVADIGLHDLRSQLTIIPQDPILFSGTLRMNLDPFGSYSEEDIWWALELSHLHTFVSSQPAGLDFQCSEGGENLSVGQRQLVCLARALLRKSRILVLDEATAAIDLETDNLIQATIRTQFDTCTVLTIAHRLNTIMDYTRVLVLDKGVVAEFDSPANLIAARGIFYGMARDAGLA", "values": [
      {"measurement": "Km", "setting": "[1]", "value": "3.7 ± 1.0", "unit": "µM"}
    ]},
    {"molecule": "ABCC2 (Homo sapiens) (protein, made in house; host or cells: Sf21 insect cells, baculovirus; plasma membrane vesicles) MLEKFCNSTFWNSSFLDSPEADLPLCFEQTVLVWIPLGYLWLLAPWQLLHVYKSRTKRSSTTKLYLAKQVFVGFLLILAAIELALVLTEDSGQATVPAVRYTNPSLYLGTWLLVLLIQYSRQWCVQKNSWFLSLFWILSILCGTFQFQTLIRTLLQGDNSNLAYSCLFFISYGFQILILIFSAFSENNESSNNPSSIASFLSSITYSWYDSIILKGYKRPLTLEDVWEVDEEMKTKTLVSKFETHMKRELQKARRALQRRQEKSSQQNSGARLPGLNKNQSQSQDALVLEDVEKKKKKSGTKKDVPKSWLMKALFKTFYMVLLKSFLLKLVNDIFTFVSPQLLKLLISFASDRDTYLWIGYLCAILLFTAALIQSFCLQCYFQLCFKLGVKVRTAIMASVYKKALTLSNLARKEYTVGETVNLMSVDAQKLMDVTNFMHMLWSSVLQIVLSIFFLWRELGPSVLAGVGVMVLVIPINAILSTKSKTIQVKNMKNKDKRLKIMNEILSGIKILKYFAWEPSFRDQVQNLRKKELKNLLAFSQLQCVVIFVFQLTPVLVSVVTFSVYVLVDSNNILDAQKAFTSITLFNILRFPLSMLPMMISSMLQASVSTERLEKYLGGDDLDTSAIRHDCNFDKAMQFSEASFTWEHDSEATVRDVNLDIMAGQLVAVIGPVGSGKSSLISAMLGEMENVHGHITIKGTTAYVPQQSWIQNGTIKDNILFGTEFNEKRYQQVLEACALLPDLEMLPGGDLAEIGEKGINLSGGQKQRISLARATYQNLDIYLLDDPLSAVDAHVGKHIFNKVLGPNGLLKGKTRLLVTHSMHFLPQVDEIVVLGNGTIVEKGSYSALLAKKGEFAKNLKTFLRHTGPEEEATVHDGSEEEDDDYGLISSVEEIPEDAASITMRRENSFRRTLSRSSRSNGRHLKSLRNSLKTRNVNSLKEDEELVKGQKLIKKEFIETGKVKFSIYLEYLQAIGLFSIFFIILAFVMNSVAFIGSNLWLSAWTSDSKIFNSTDYPASQRDMRVGVYGALGLAQGIFVFIAHFWSAFGFVHASNILHKQLLNNILRAPMRFFDTTPTGRIVNRFAGDISTVDDTLPQSLRSWITCFLGIISTLVMICMATPVFTIIVIPLGIIYVSVQMFYVSTSRQLRRLDSVTRSPIYSHFSETVSGLPVIRAFEHQQRFLKHNEVRIDTNQKCVFSWITSNRWLAIRLELVGNLTVFFSALMMVIYRDTLSGDTVGFVLSNALNITQTLNWLVRMTSEIETNIVAVERITEYTKVENEAPWVTDKRPPPDWPSKGKIQFNNYQVRYRPELDLVLRGITCDIGSMEKIGVVGRTGAGKSSLTNCLFRILEAAGGQIIIDGVDIASIGLHDLREKLTIIPQDPILFSGSLRMNLDPFNNYSDEEIWKALELAHLKSFVASLQLGLSHEVTEAGGNLSIGQRQLLCLGRALLRKSKILVLDEATAAVDLETDNLIQTTIQNEFAHCTVITIAHRLHTIMDSDKVMVLDNGKIIECGSPEELLQIPGPFYFMAKEAGIENVNSTKF", "values": [
      {"measurement": "Km", "setting": "[2]", "value": "3.3 ± 2.0", "unit": "µM"}
    ]}
  ]
}
